Measured values reported in patent US8969542B2, “HPV polyepitope constructs and uses thereof” (priority 2007, dated 2015).

Legend:
[1] = test system: CD8+ spleen cells of HLA transgenic mice (HLA-A01/Kb, F1 HLA-A02/KbxBalb/c, HLA-A11/Kb, HLA-A24/Kb); test: Immunogenicity after peptide pool/IFA immunization, direct ex vivo IFNγ ELISPOT; format: in vivo, mouse; conditions: for Delta SFC/10^6 cells / Ratio: Peptide Pool; for Peptide Pool SFC/10^6 cells Delta / Peptide Pool SFC/10^6 cells Ratio: immunization with pool of peptides emulsified in IFA, IFNγ ELISPOT; for Peptide Pool SFC/10^6 cells Delta: HLA transgenic mice (HLA-A01/A02/A11/A24), CD8+ cells restimulated with WT peptide 10 μg/mL; for Peptide Pool SFC/10^6 cells Ratio: HLA transgenic mice, response ratio, WT peptide 10 μg/mL
Experimental: CTL binding epitopes were evaluated for their immunogenicity in different HLA transgenic mice. To this, a single immunization with CTL peptide pools together with a common HTL epitope emulsified in IFA was performed and up to 14 days later, CD8+ spleen cells were isolated and evaluated for epitope specificity using a direct ex vivo IFNγ ELISPOT assay.
Peptides were dissolved in DMSO at a concentration of 10 mg/mL. For each of the 4 DNA constructs, the corresponding HLA-restricted peptides were pooled per HLA type (5 to 7 CTL peptides/pool). A known HTL peptide ([…]) was added and the peptide pools were diluted in PBS to the required peptide concentration (i.e. 25 μg of each CTL peptide and 120 μg HTL peptide in 50 μl). After adding an equal volume of IFA (Pierce, lot DG56079), the mixture was emulsified by forcing it through a small orifice. Mice were immunized subcutaneously at the base of the tail with 50 μl peptide/IFA mixture.
As negative control for the peptide-immunized mice, 18 mice (in total) were injected with a PBS/IFA mixture.
(§1) Mice were euthanized and spleen cells (SPC) were isolated 13 days after immunization. […] Spleen cells of DNA- and peptide-immunized HLA-A11/Kb mice were analyzed individually. SPC of all negative control mice were pooled per 2 mice, resulting in 3 data points for each peptide tested.
(§2) A direct ex vivo IFNγ ELISPOT assay was used as surrogate CTL readout. Basically, purified CD8+ cells were incubated with the individual HPV-specific HLA-restricted peptides (10 μg/mL) loaded on the appropriate antigen presenting cells (APC), in anti-mouse IFNγ antibody-coated ELISPOT plates. […] After 20 h incubation, IFNγ-producing cells were visualized by further developing the plates with biotinylated anti-mouse IFNγ antibody, streptavidin-HRP and AEC as substrate.
(§3) Some of the CTL epitopes included in the DNA constructs are analoged sequences of the wild type viral epitopes. For these particular epitopes, only the wild type sequences were used as in vitro stimulus for CTL readout.

[2] = test system: CD8+ spleen cells of HLA transgenic mice (HLA-A01/Kb, F1 HLA-A02/KbxBalb/c, HLA-A11/Kb, HLA-A24/Kb); test: Immunogenicity after HPV DNA construct immunization, direct ex vivo IFNγ ELISPOT; format: in vivo, mouse; conditions: for ICCG6138 SFC/10^6 cells Delta / ICCG6138 SFC/10^6 cells Ratio: immunization with DNA construct ICCG 6138; for ICCG6138 SFC/10^6 cells Delta / ICCG6137 SFC/10^6 cells Delta: HLA transgenic mice (HLA-A01/A02/A11/A24), CD8+ cells restimulated with WT peptide 10 μg/mL; for ICCG6138 SFC/10^6 cells Delta / ICCG6138 SFC/10^6 cells Ratio / ICCG6137 SFC/10^6 cells Delta / ICCG6137 SFC/10^6 cells Ratio: IFNγ ELISPOT; for ICCG6138 SFC/10^6 cells Ratio / ICCG6137 SFC/10^6 cells Ratio: HLA transgenic mice, response ratio, WT peptide 10 μg/mL; for ICCG6137 SFC/10^6 cells Delta / ICCG6137 SFC/10^6 cells Ratio: immunization with DNA construct ICCG 6137
Experimental: The immunogenicity of HPV HLA class I-restricted epitopes encoded in the DNA constructs was tested in the relevant HLA transgenic mice. […] To ensure an equal distribution of mice between different groups, a randomisation procedure based on body weight was performed. Female and male mice (age between 8 and 24 weeks) were ranked by body weight, extreme light or heavy animals were excluded. The remaining animals were grouped by sequentially assigning animals for the 2 experiments.
Mice were pre-treated with cardiotoxin (Sigma, C9759) on day −4 by bilateral intramuscular injection of 100 μl (2×50 μl) of a 10 μM cardiotoxin solution. Four days later, all mice were immunised with 100 μg HPV-DNA plasmid (diluted to 1 mg/ml in PBS) by bilateral injection of 50 μg in the m. tibialis anterior. […]
as §1, §2, §3

[3] = HLA-A01 epitopes, HLA-A01/Kb mice, median of mouse pools
[4] = HLA-A01 epitopes, HLA-A01/Kb mice, DNA construct ICCG6150, median of mouse pools
[5] = HLA-A02 epitopes, F1 HLA-A02/KbxBalb/c mice, median of mouse pools
[6] = HLA-A02 epitopes, F1 HLA-A02/KbxBalb/c mice, DNA construct ICCG6149, median of mouse pools
[7] = HLA-A02 epitopes, F1 HLA-A02/KbxBalb/c mice, DNA construct ICCG6150, median of mouse pools
[8] = HLA-A11 epitopes, HLA-A11/Kb mice, median
[9] = HLA-A11 epitopes, HLA-A11/Kb mice, DNA construct ICCG6149, median
[10] = HLA-A11 epitopes, HLA-A11/Kb mice, DNA construct ICCG6150, median
[11] = HLA-A24 epitopes, HLA-A24/Kb mice, median of mouse pools
[12] = HLA-A24 epitopes, HLA-A24/Kb mice, DNA construct ICCG6149, median of mouse pools
[13] = HLA-A24 epitopes, HLA-A24/Kb mice, DNA construct ICCG6150, median of mouse pools

## 132 (ISEYRHYCY; Human papillomavirus type 16) [compound 132]
[1]; [3]
  Delta SFC/10^6 cells: 2 SFC/10^6 cells
  Ratio: 1.1
[2]; [4]
  Delta SFC/10^6 cells: 3 SFC/10^6 cells
  Ratio: 1.1

## 133 (YMLDLQPETT; Human papillomavirus type 16) [compound 133]
[1]; [5]
  Delta SFC/10^6 cells: 1 SFC/10^6 cells
  Ratio: 1.0
[2]; [6]
  Delta SFC/10^6 cells: 5 SFC/10^6 cells
  Ratio: 1.4
[2]; [7]
  Delta SFC/10^6 cells: 10 SFC/10^6 cells
  Ratio: 3.3

## 134 (GTLGIVCPI; Human papillomavirus type 16) [compound 134]
[1]; [5]
  Delta SFC/10^6 cells: 55 SFC/10^6 cells
  Ratio: 8.0
[2]; [6]
  Delta SFC/10^6 cells: 1 SFC/10^6 cells
  Ratio: 1.0
[2]; [7]
  Delta SFC/10^6 cells: 3 SFC/10^6 cells
  Ratio: 1.7

## 135 (TIHDIILECV; Human papillomavirus type 16) [compound 135]
[1]; [5]
  Delta SFC/10^6 cells: 80 SFC/10^6 cells
  Ratio: 10.0
[2]; [6]
  Delta SFC/10^6 cells: 562 SFC/10^6 cells
  Ratio: 86.7
[2]; [7]
  Delta SFC/10^6 cells: 358 SFC/10^6 cells
  Ratio: 24.8

## 136 (KLTNTGLYNL; Human papillomavirus type 18) [compound 136]
[1]; [5]
  Delta SFC/10^6 cells: 280 SFC/10^6 cells
  Ratio: 29.0
[2]; [6]
  Delta SFC/10^6 cells: 6 SFC/10^6 cells
  Ratio: 2.0
[2]; [7]
  Delta SFC/10^6 cells: 20 SFC/10^6 cells
  Ratio: 2.7

## 137 (DSVYGDTLEK; Human papillomavirus type 18) [compound 137]
[1]; [8]
  Delta SFC/10^6 cells: 40 SFC/10^6 cells
  Ratio: 1.1
[2]; [9]
  Delta SFC/10^6 cells: 15 SFC/10^6 cells
  Ratio: 1.2
[2]; [10]
  Delta SFC/10^6 cells: 1 SFC/10^6 cells
  Ratio: 1.0

## 138 (FVVYRDSIPH; Human papillomavirus type 18) [compound 138]
[1]; [8]
  Delta SFC/10^6 cells: 110 SFC/10^6 cells
  Ratio: 1.3
[2]; [9]
  Delta SFC/10^6 cells: 1 SFC/10^6 cells
  Ratio: 1.0
[2]; [10]
  Delta SFC/10^6 cells: 1 SFC/10^6 cells
  Ratio: 1.0

## 139 (CYSLYGTTL; Human papillomavirus type 16) [compound 139]
[1]; [11]
  Delta SFC/10^6 cells: 1 SFC/10^6 cells
  Ratio: 1.0
[2]; [12]
  Delta SFC/10^6 cells: 3 SFC/10^6 cells
  Ratio: 1.0
[2]; [13]
  Delta SFC/10^6 cells: 1 SFC/10^6 cells
  Ratio: 1.0

## 140 (PYAVCDKCL; Human papillomavirus type 16) [compound 140]
[1]; [11]
  Delta SFC/10^6 cells: 150 SFC/10^6 cells
  Ratio: 4.2
[2]; [12]
  Delta SFC/10^6 cells: 3 SFC/10^6 cells
  Ratio: 1.1
[2]; [13]
  Delta SFC/10^6 cells: 1 SFC/10^6 cells
  Ratio: 1.0

## 141 (RFHNIRGRW; Human papillomavirus type 16) [compound 141]
[1]; [11]
  Delta SFC/10^6 cells: 205 SFC/10^6 cells
  Ratio: 6.9
[2]; [12]
  Delta SFC/10^6 cells: 3 SFC/10^6 cells
  Ratio: 1.1
[2]; [13]
  Delta SFC/10^6 cells: 1 SFC/10^6 cells
  Ratio: 1.0

## 143 (LYNLLIRWL; Human papillomavirus type 18-derived epitope) [compound 143]
[1]; [11]
  Delta SFC/10^6 cells: 30 SFC/10^6 cells
  Ratio: 1.5
[2]; [12]
  Delta SFC/10^6 cells: 3 SFC/10^6 cells
  Ratio: 1.0
[2]; [13]
  Delta SFC/10^6 cells: 1 SFC/10^6 cells
  Ratio: 1.0

## 144 (LYGVSFTEL; Human papillomavirus type 16-derived epitope) [compound 144]
[1]; [11]
  Delta SFC/10^6 cells: 5 SFC/10^6 cells
  Ratio: 1.1
[2]; [12]
  Delta SFC/10^6 cells: 3 SFC/10^6 cells
  Ratio: 1.0
[2]; [13]
  Delta SFC/10^6 cells: 1 SFC/10^6 cells
  Ratio: 1.0

## 145 (CYSVYGTTL; Human papillomavirus type 16-derived epitope) [compound 145]
[1]; [11]
  Delta SFC/10^6 cells: 55 SFC/10^6 cells
  Ratio: 1.8
[2]; [12]
  Delta SFC/10^6 cells: 23 SFC/10^6 cells
  Ratio: 1.4
[2]; [13]
  Delta SFC/10^6 cells: 90 SFC/10^6 cells
  Ratio: 2.6

## 146 (QAEPDTSNY; Human papillomavirus type 31) [compound 146]
[1]
  Peptide Pool SFC/10^6 cells Delta: 4 SFC/10^6 cells
  Peptide Pool SFC/10^6 cells Ratio: 1.2
[2]
  ICCG6138 SFC/10^6 cells Delta: 23 SFC/10^6 cells
  ICCG6138 SFC/10^6 cells Ratio: 2.5

## 147 (LQDVSIACVY; Human papillomavirus type 45) [compound 147]
[1]
  Peptide Pool SFC/10^6 cells Delta: 1 SFC/10^6 cells
  Peptide Pool SFC/10^6 cells Ratio: 1.0
[2]
  ICCG6138 SFC/10^6 cells Delta: 6 SFC/10^6 cells
  ICCG6138 SFC/10^6 cells Ratio: 1.4

## 148 (FAFTDLTIV; Human papillomavirus type 31) [compound 148]
[1]
  Peptide Pool SFC/10^6 cells Delta: 100 SFC/10^6 cells
  Peptide Pool SFC/10^6 cells Ratio: 8.5
[2]
  ICCG6137 SFC/10^6 cells Delta: 1 SFC/10^6 cells
  ICCG6137 SFC/10^6 cells Ratio: 1.0
  ICCG6138 SFC/10^6 cells Delta: 1 SFC/10^6 cells
  ICCG6138 SFC/10^6 cells Ratio: 1.0

## 149 (YQFAFKDLCI; Human papillomavirus type 45) [compound 149]
[1]
  Peptide Pool SFC/10^6 cells Delta: 10 SFC/10^6 cells
  Peptide Pool SFC/10^6 cells Ratio: 2.0
[2]
  ICCG6137 SFC/10^6 cells Delta: 3 SFC/10^6 cells
  ICCG6137 SFC/10^6 cells Ratio: 1.1
  ICCG6138 SFC/10^6 cells Delta: 1 SFC/10^6 cells
  ICCG6138 SFC/10^6 cells Ratio: 1.0

## 150 (TLQEIVLHL; Human papillomavirus type 45) [compound 150]
[1]
  Peptide Pool SFC/10^6 cells Delta: 70 SFC/10^6 cells
  Peptide Pool SFC/10^6 cells Ratio: 8.0
[2]
  ICCG6137 SFC/10^6 cells Delta: 5 SFC/10^6 cells
  ICCG6137 SFC/10^6 cells Ratio: 2.0
  ICCG6138 SFC/10^6 cells Delta: 3 SFC/10^6 cells
  ICCG6138 SFC/10^6 cells Ratio: 1.3

## 151 (RTEVYQFAFK; Human papillomavirus type 45) [compound 151]
[1]
  Peptide Pool SFC/10^6 cells Delta: 1 SFC/10^6 cells
  Peptide Pool SFC/10^6 cells Ratio: 1.0
[2]
  ICCG6137 SFC/10^6 cells Delta: 1 SFC/10^6 cells
  ICCG6137 SFC/10^6 cells Ratio: 1.0
  ICCG6138 SFC/10^6 cells Delta: 1 SFC/10^6 cells
  ICCG6138 SFC/10^6 cells Ratio: 1.0

## 152 (SVYGTTLEK; Human papillomavirus type 31) [compound 152]
[1]
  Peptide Pool SFC/10^6 cells Delta: 730 SFC/10^6 cells
  Peptide Pool SFC/10^6 cells Ratio: 6.2
[2]
  ICCG6137 SFC/10^6 cells Delta: 1050 SFC/10^6 cells
  ICCG6137 SFC/10^6 cells Ratio: 5.4
  ICCG6138 SFC/10^6 cells Delta: 1150 SFC/10^6 cells
  ICCG6138 SFC/10^6 cells Ratio: 9.7

## 153 (HYTNWKFIY; Human papilloma virus) [compound 153]
[1]
  Peptide Pool SFC/10^6 cells Delta: 155 SFC/10^6 cells
  Peptide Pool SFC/10^6 cells Ratio: 2.7
[2]
  ICCG6137 SFC/10^6 cells Delta: 19 SFC/10^6 cells
  ICCG6137 SFC/10^6 cells Ratio: 1.3
  ICCG6138 SFC/10^6 cells Delta: 58 SFC/10^6 cells
  ICCG6138 SFC/10^6 cells Ratio: 1.3
